Common to all, as to format: physicochemical
Series [1] in a line: Stability under solar light.
Series [2] is described as follows: Stability in general-use solvents. The conditions noted are these: such as acidic or alkaline aqueous solutions.
The nature of a further series: Vapor pressure. To be noted: at 25° C.

Consider `CC=CC1C(C(=O)OCc2c(F)c(F)c(COC)c(F)c2F)C1(C)C` (stereo not drawn) [Compound A, 2,3,5,6-tetrafluoro-4-methoxymethylbenzyl 1R-trans-3-(1-propenyl(E/Z=1/8))-2,2-dimethylcyclopropanecarboxylate], for which the “stability under solar light” value in series [1] is given as “very stable”. Moreover, the “stability in various general-use solvents” value in series [2] is “stable”. Further, in the series “Vapor pressure”, the vapor pressure is reported as 1.96×10^−3 Pa.
